Laboratory results: ChEMBL document CHEMBL4004803, “Syntheses and antibacterial activity of soluble 9-bromo substituted indolizinoquinoline-5,12-dione derivatives” (Eur J Med Chem, 2017)
Values after ≈ are worked out from the molar mass of the structure shown.

Legend:
Staphylococcus aureus [1] = assay: Antibacterial activity against methicillin-resistant Staphylococcus aureus 518036 clinical isolate after 20 to 24 hrs by two-fold microdilution method; type: functional
Staphylococcus aureus [2] = assay: Antibacterial activity against methicillin-resistant Staphylococcus aureus 221014 clinical isolate after 20 to 24 hrs by two-fold microdilution method; type: functional
Staphylococcus aureus [3] = assay: Antibacterial activity against methicillin-resistant Staphylococcus aureus 130031 clinical isolate after 20 to 24 hrs by two-fold microdilution method; type: functional
Staphylococcus aureus [4] = assay: Antibacterial activity against methicillin-resistant Staphylococcus aureus 122820-2 clinical isolate after 20 to 24 hrs by two-fold microdilution method; type: functional
Staphylococcus aureus [5] = assay: Antibacterial activity against methicillin-resistant Staphylococcus aureus 110910-2 clinical isolate after 20 to 24 hrs by two-fold microdilution method; type: functional
Staphylococcus aureus [6] = assay: Antibacterial activity against methicillin-resistant Staphylococcus aureus 122710-2 clinical isolate after 20 to 24 hrs by two-fold microdilution method; type: functional
Staphylococcus aureus [7] = assay: Antibacterial activity against methicillin-resistant Staphylococcus aureus 531026 clinical isolate after 20 to 24 hrs by two-fold microdilution method; type: functional
Staphylococcus aureus [8] = assay: Antibacterial activity against methicillin-resistant Staphylococcus aureus 1215028 clinical isolate after 20 to 24 hrs by two-fold microdilution method; type: functional
Staphylococcus aureus [9] = assay: Antibacterial activity against methicillin-resistant Staphylococcus aureus 1106003 clinical isolate after 20 to 24 hrs by two-fold microdilution method; type: functional
Staphylococcus aureus [10] = assay: Antibacterial activity against methicillin-resistant Staphylococcus aureus 1216052 clinical isolate after 20 to 24 hrs by two-fold microdilution method; type: functional
Staphylococcus aureus [11] = assay: Antibacterial activity against methicillin-resistant Staphylococcus aureus 519028 clinical isolate after 20 to 24 hrs by two-fold microdilution method; type: functional
Staphylococcus aureus [12] = assay: Antibacterial activity against methicillin-resistant Staphylococcus aureus 921026 clinical isolate after 20 to 24 hrs by two-fold microdilution method; type: functional
Staphylococcus aureus [13] = assay: Antibacterial activity against methicillin-resistant Staphylococcus aureus 110432 clinical isolate after 20 to 24 hrs by two-fold microdilution method; type: functional
Staphylococcus aureus [14] = assay: Antibacterial activity against methicillin-resistant Staphylococcus aureus 1026021 clinical isolate after 20 to 24 hrs by two-fold microdilution method; type: functional
Staphylococcus aureus [15] = assay: Antibacterial activity against methicillin-resistant Staphylococcus aureus 829034 clinical isolate after 20 to 24 hrs by two-fold microdilution method; type: functional
Staphylococcus aureus [16] = assay: Antibacterial activity against methicillin-resistant Staphylococcus aureus 1107027 clinical isolate after 20 to 24 hrs by two-fold microdilution method; type: functional
Staphylococcus aureus [17] = assay: Antibacterial activity against methicillin-resistant Staphylococcus aureus 1101016 clinical isolate after 20 to 24 hrs by two-fold microdilution method; type: functional
Staphylococcus aureus [18] = assay: Antibacterial activity against methicillin-resistant Staphylococcus aureus 215073 clinical isolate after 20 to 24 hrs by two-fold microdilution method; type: functional
Staphylococcus aureus [19] = assay: Antibacterial activity against methicillin-resistant Staphylococcus aureus 305026 clinical isolate after 20 to 24 hrs by two-fold microdilution method; type: functional
Staphylococcus aureus [20] = assay: Antibacterial activity against methicillin-resistant Staphylococcus aureus 1128040 clinical isolate after 20 to 24 hrs by two-fold microdilution method; type: functional
Staphylococcus aureus [21] = assay: Antibacterial activity against methicillin-resistant Staphylococcus aureus GLH14 clinical isolate after 20 to 24 hrs by two-fold microdilution method; type: functional
Staphylococcus aureus [22] = assay: Antibacterial activity against methicillin-resistant Staphylococcus aureus 212014 clinical isolate after 20 to 24 hrs by two-fold microdilution method; type: functional
Staphylococcus aureus [23] = assay: Antibacterial activity against methicillin-resistant Staphylococcus aureus 109244 clinical isolate after 20 to 24 hrs by two-fold microdilution method; type: functional
Staphylococcus aureus [24] = assay: Antibacterial activity against methicillin-resistant Staphylococcus aureus 110325 clinical isolate after 20 to 24 hrs by two-fold microdilution method; type: functional
Staphylococcus aureus [25] = assay: Antibacterial activity against methicillin-resistant Staphylococcus aureus 110414 clinical isolate after 20 to 24 hrs by two-fold microdilution method; type: functional
Staphylococcus aureus [26] = assay: Antibacterial activity against methicillin-resistant Staphylococcus aureus 414244 clinical isolate after 20 to 24 hrs by two-fold microdilution method; type: functional
Staphylococcus aureus [27] = assay: Antibacterial activity against methicillin-resistant Staphylococcus aureus 1012039 clinical isolate after 20 to 24 hrs by two-fold microdilution method; type: functional
Staphylococcus aureus [28] = assay: Antibacterial activity against methicillin-resistant Staphylococcus aureus 1211026 clinical isolate after 20 to 24 hrs by two-fold microdilution method; type: functional
[29] = Solubility of the compound in water at 25 degC measured after shaking for 4 hrs by UV method; type: physicochemical; settings: buffer, 4 h
Staphylococcus aureus [30] = assay: Antibacterial activity against methicillin-resistant Staphylococcus aureus 1025022 clinical isolate after 20 to 24 hrs by two-fold microdilution method; type: functional
Staphylococcus aureus [31] = assay: Antibacterial activity against methicillin-resistant Staphylococcus aureus 11703 clinical isolate after 20 to 24 hrs by two-fold microdilution method; type: functional
Staphylococcus aureus [32] = assay: Antibacterial activity against methicillin-resistant Staphylococcus aureus 523005 clinical isolate after 20 to 24 hrs by two-fold microdilution method; type: functional
Staphylococcus aureus [33] = assay: Antibacterial activity against methicillin-resistant Staphylococcus aureus 503025 clinical isolate after 20 to 24 hrs by two-fold microdilution method; type: functional
Staphylococcus aureus [34] = assay: Antibacterial activity against methicillin-resistant Staphylococcus aureus 214026 clinical isolate after 20 to 24 hrs by two-fold microdilution method; type: functional
Staphylococcus aureus [35] = assay: Antibacterial activity against methicillin-resistant Staphylococcus aureus 224001 clinical isolate after 20 to 24 hrs by two-fold microdilution method; type: functional
Staphylococcus aureus [36] = assay: Antibacterial activity against methicillin-resistant Staphylococcus aureus 216054 clinical isolate after 20 to 24 hrs by two-fold microdilution method; type: functional
Staphylococcus aureus [37] = assay: Antibacterial activity against methicillin-resistant Staphylococcus aureus 3250299 clinical isolate after 20 to 24 hrs by two-fold microdilution method; type: functional
Staphylococcus aureus [38] = assay: Antibacterial activity against methicillin-resistant Staphylococcus aureus 1029025 clinical isolate after 20 to 24 hrs by two-fold microdilution method; type: functional
Staphylococcus aureus [39] = assay: Antibacterial activity against methicillin-resistant Staphylococcus aureus 20534 clinical isolate after 20 to 24 hrs by two-fold microdilution method; type: functional
Staphylococcus aureus [40] = assay: Antibacterial activity against methicillin-resistant Staphylococcus aureus 121026 clinical isolate after 20 to 24 hrs by two-fold microdilution method; type: functional
Staphylococcus aureus [41] = assay: Antibacterial activity against methicillin-resistant Staphylococcus aureus 1212057-1 clinical isolate after 20 to 24 hrs by two-fold microdilution method; type: functional
Staphylococcus aureus [42] = assay: Antibacterial activity against methicillin-resistant Staphylococcus aureus 112430 clinical isolate after 20 to 24 hrs by two-fold microdilution method; type: functional
Staphylococcus aureus [43] = assay: Antibacterial activity against methicillin-resistant Staphylococcus aureus 625032 clinical isolate after 20 to 24 hrs by two-fold microdilution method; type: functional
Staphylococcus aureus [44] = assay: Antibacterial activity against methicillin-resistant Staphylococcus aureus 519030 clinical isolate after 20 to 24 hrs by two-fold microdilution method; type: functional
Escherichia coli = assay: Antibacterial activity against Escherichia coli ATCC 25922 after 20 to 24 hrs by two-fold microdilution method; type: functional
Staphylococcus aureus [45] = assay: Antibacterial activity against methicillin-resistant Staphylococcus aureus 531220 clinical isolate after 20 to 24 hrs by two-fold microdilution method; type: functional
Staphylococcus aureus [46] = assay: Antibacterial activity against methicillin-resistant Staphylococcus aureus 1207026 clinical isolate after 20 to 24 hrs by two-fold microdilution method; type: functional

O=C1c2cccnc2C(=O)c2c1c(C(=O)OCCCCN1CCOCC1)c1ccc(Br)cn21 showed an MIC (Staphylococcus aureus [1]) of 0.5 µg/mL (≈ 0.976 µM), an MIC (Staphylococcus aureus [2]) of 1 µg/mL (≈ 1.95 µM) and an MIC (Staphylococcus aureus [3]) of 1 µg/mL (≈ 1.95 µM). For the same compound, the MIC (Staphylococcus aureus [4]) was 0.125 µg/mL (≈ 0.244 µM), the MIC (Staphylococcus aureus [5]) was 0.5 µg/mL (≈ 0.976 µM) and the MIC (Staphylococcus aureus [6]) was 0.25 µg/mL (≈ 0.488 µM). The MIC (Staphylococcus aureus [7]) was 0.25 µg/mL (≈ 0.488 µM), the MIC (Staphylococcus aureus [8]) was 0.5 µg/mL (≈ 0.976 µM) and the MIC (Staphylococcus aureus [9]) was 16 µg/mL (≈ 31.2 µM). For the same compound, the MIC (Staphylococcus aureus [10]) was 8 µg/mL (≈ 15.6 µM), the MIC (Staphylococcus aureus [11]) was 0.5 µg/mL (≈ 0.976 µM) and the MIC (Staphylococcus aureus [12]) was 0.5 µg/mL (≈ 0.976 µM). The MIC (Staphylococcus aureus [13]) was 0.25 µg/mL (≈ 0.488 µM), the MIC (Staphylococcus aureus [14]) was 16 µg/mL (≈ 31.2 µM) and the MIC (Staphylococcus aureus [15]) was 0.5 µg/mL (≈ 0.976 µM). The MIC (Staphylococcus aureus [16]) was 0.25 µg/mL (≈ 0.488 µM), the MIC (Staphylococcus aureus [17]) was 0.25 µg/mL (≈ 0.488 µM) and the MIC (Staphylococcus aureus [18]) was 0.063 µg/mL (≈ 0.123 µM). For the same compound, the MIC (Staphylococcus aureus [19]) was 0.125 µg/mL (≈ 0.244 µM), the MIC (Staphylococcus aureus [20]) was 0.25 µg/mL (≈ 0.488 µM) and the MIC (Staphylococcus aureus [21]) was 0.5 µg/mL (≈ 0.976 µM). It also gave an MIC (Staphylococcus aureus [22]) of 0.125 µg/mL (≈ 0.244 µM), an MIC (Staphylococcus aureus [23]) of 0.25 µg/mL (≈ 0.488 µM) and an MIC (Staphylococcus aureus [24]) of 0.25 µg/mL (≈ 0.488 µM). The MIC (Staphylococcus aureus [25]) was 0.5 µg/mL (≈ 0.976 µM), the MIC (Staphylococcus aureus [26]) was 1 µg/mL (≈ 1.95 µM) and the MIC (Staphylococcus aureus [27]) was 0.5 µg/mL (≈ 0.976 µM). The MIC (Staphylococcus aureus [28]) was 0.125 µg/mL (≈ 0.244 µM), the solubility [29] was “Insoluble” and the MIC (Staphylococcus aureus [30]) was 0.125 µg/mL (≈ 0.244 µM). The MIC (Staphylococcus aureus [31]) was 0.5 µg/mL (≈ 0.976 µM), the MIC (Staphylococcus aureus [32]) was 0.5 µg/mL (≈ 0.976 µM) and the MIC (Staphylococcus aureus [33]) was 1 µg/mL (≈ 1.95 µM). For the same compound, the MIC (Staphylococcus aureus [34]) was 0.063 µg/mL (≈ 0.123 µM), the MIC (Staphylococcus aureus [35]) was 1 µg/mL (≈ 1.95 µM) and the MIC (Staphylococcus aureus [36]) was 0.063 µg/mL (≈ 0.123 µM). The MIC (Staphylococcus aureus [37]) was 0.5 µg/mL (≈ 0.976 µM), the MIC (Staphylococcus aureus [38]) was 0.5 µg/mL (≈ 0.976 µM) and the MIC (Staphylococcus aureus [39]) was 1 µg/mL (≈ 1.95 µM). It also gave an MIC (Staphylococcus aureus [40]) of 0.25 µg/mL (≈ 0.488 µM), an MIC (Staphylococcus aureus [41]) of 0.25 µg/mL (≈ 0.488 µM) and an MIC (Staphylococcus aureus [42]) of 0.5 µg/mL (≈ 0.976 µM). For the same compound, the MIC (Staphylococcus aureus [43]) was 0.5 µg/mL (≈ 0.976 µM), the MIC (Staphylococcus aureus [44]) was 1 µg/mL (≈ 1.95 µM) and the MIC (Escherichia coli) was over 16 µg/mL. For the same compound, the MIC (Staphylococcus aureus [45]) was 0.25 µg/mL (≈ 0.488 µM) and the MIC (Staphylococcus aureus [46]) was 0.5 µg/mL (≈ 0.976 µM).
